Assay results from PMC7154863, “The First Case of Glyphosate Resistance in Johnsongrass (Sorghum halepense (L.) Pers.) in Europe” (Plants, 2020).

System: T1, 5-enolpyruvylshikimate-3-phosphate synthase (EPSPS)
T1 construct: native enzyme in leaf extract, not purified to homogeneity; partial EPSPS2 cDNA (543-bp fragment) without Pro106 or Thr102 substitution
Experiment: EnzCheck phosphate release assay, leaf extract, log-logistic fit
Assay type: biochemical, Sorghum halepense
Settings: range of estimates over seven populations without significant differences: 2.6 (GR6), 3.4 (GR1); the others only in the figure; glyphosate 0-1000 µM; 360 nm, 10 min; read-out: I50

SMILES: O=C(O)CNCP(=O)(O)O [glyphosate]
- IC50: 2600 to 3400 nM
